Results published in PubChem BioAssay (NCI).
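Results reflect a 48-hour exposure of cells in 96-well plates to compound at five concentrations. TGI: concentration producing complete growth inhibition.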

Key:
Experiment in all cases: inhibition of tumour cell growth, NCI panel, 48 h
COLO 205 colon = system: COLO 205 colon
RPMI-8226 leukemia = system: RPMI-8226 leukemia
M14 melanoma = system: M14 melanoma
HOP-18 NSCLC = system: HOP-18 NSCLC
SW-620 colon = system: SW-620 colon
U251 CNS = system: U251 CNS
M19-MEL melanoma = system: M19-MEL melanoma
LOX IMVI melanoma = system: LOX IMVI melanoma
IGROV1 ovarian = system: IGROV1 ovarian
CAKI-1 renal = system: CAKI-1 renal
EKVX NSCLC = system: EKVX NSCLC
SK-MEL-28 melanoma = system: SK-MEL-28 melanoma
UACC-257 melanoma = system: UACC-257 melanoma
SK-MEL-2 melanoma = system: SK-MEL-2 melanoma
KM20L2 colon = system: KM20L2 colon
SNB-75 CNS = system: SNB-75 CNS
TK-10 renal = system: TK-10 renal
HL-60(TB) leukemia = system: HL-60(TB) leukemia
K-562 leukemia = system: K-562 leukemia
HCC-2998 colon = system: HCC-2998 colon
UO-31 renal = system: UO-31 renal
UACC-62 melanoma = system: UACC-62 melanoma
A498 renal = system: A498 renal
DMS 273 small cell lung = system: DMS 273 small cell lung
HOP-92 NSCLC = system: HOP-92 NSCLC
SNB-19 CNS = system: SNB-19 CNS
A549 NSCLC = system: A549 NSCLC
LXFL 529 NSCLC = system: LXFL 529 NSCLC
KM12 colon = system: KM12 colon
ACHN renal = system: ACHN renal
MALME-3M melanoma = system: MALME-3M melanoma
SR leukemia = system: SR leukemia
SNB-78 CNS = system: SNB-78 CNS
SK-MEL-5 melanoma = system: SK-MEL-5 melanoma
HOP-62 NSCLC = system: HOP-62 NSCLC
HCT-15 colon = system: HCT-15 colon
SK-OV-3 ovarian = system: SK-OV-3 ovarian
MOLT-4 leukemia = system: MOLT-4 leukemia
OVCAR-8 ovarian = system: OVCAR-8 ovarian
HT29 colon = system: HT29 colon
SF-539 CNS = system: SF-539 CNS
CCRF-CEM leukemia = system: CCRF-CEM leukemia
NCI-H460 lung = system: NCI-H460 lung
NCI-H522 lung = system: NCI-H522 lung
OVCAR-4 ovarian = system: OVCAR-4 ovarian
786-0 renal = system: 786-0 renal
RXF 393 renal = system: RXF 393 renal
OVCAR-5 ovarian = system: OVCAR-5 ovarian
OVCAR-3 ovarian = system: OVCAR-3 ovarian
SF-295 CNS = system: SF-295 CNS
SN12C renal = system: SN12C renal
HCT-116 colon = system: HCT-116 colon
NCI-H23 lung = system: NCI-H23 lung
NCI-H226 lung = system: NCI-H226 lung
SF-268 CNS = system: SF-268 CNS

## COc1ccc2c(c1)[n+](=O)c(C(=O)CC(=O)C(=O)Nc1cccc(Cl)c1C)c(C)n2[O-]
COLO 205 colon
  TGI: > 100 µM
RPMI-8226 leukemia
  TGI: > 100 µM
M14 melanoma
  TGI: > 100 µM
HOP-18 NSCLC
  TGI: > 100 µM
SW-620 colon
  TGI: > 100 µM
U251 CNS
  TGI: > 100 µM
M19-MEL melanoma
  TGI: > 100 µM
LOX IMVI melanoma
  TGI: > 100 µM
IGROV1 ovarian
  TGI: > 100 µM
CAKI-1 renal
  TGI: > 100 µM
EKVX NSCLC
  TGI: > 100 µM
SK-MEL-28 melanoma
  TGI: > 100 µM
UACC-257 melanoma
  TGI: > 100 µM
SK-MEL-2 melanoma
  TGI: > 100 µM
KM20L2 colon
  TGI: > 100 µM
SNB-75 CNS
  TGI: > 100 µM
TK-10 renal
  TGI: > 100 µM
HL-60(TB) leukemia
  TGI: > 100 µM
K-562 leukemia
  TGI: > 100 µM
HCC-2998 colon
  TGI: > 100 µM
UO-31 renal
  TGI: > 100 µM
UACC-62 melanoma
  TGI: > 100 µM
A498 renal
  TGI: > 100 µM
DMS 273 small cell lung
  TGI: > 100 µM
HOP-92 NSCLC
  TGI: > 100 µM
SNB-19 CNS
  TGI: > 100 µM
A549 NSCLC
  TGI: > 100 µM
LXFL 529 NSCLC
  TGI: > 100 µM
KM12 colon
  TGI: > 100 µM
ACHN renal
  TGI: > 100 µM
MALME-3M melanoma
  TGI: > 100 µM
SR leukemia
  TGI: > 100 µM
SNB-78 CNS
  TGI: > 100 µM
SK-MEL-5 melanoma
  TGI: > 100 µM
HOP-62 NSCLC
  TGI: > 100 µM
HCT-15 colon
  TGI: > 100 µM
SK-OV-3 ovarian
  TGI: > 100 µM
MOLT-4 leukemia
  TGI: > 100 µM
OVCAR-8 ovarian
  TGI: > 100 µM
HT29 colon
  TGI: > 100 µM
SF-539 CNS
  TGI: > 100 µM
CCRF-CEM leukemia
  TGI: 71.2 µM
NCI-H460 lung
  TGI: > 100 µM
NCI-H522 lung
  TGI: 58 µM
OVCAR-4 ovarian
  TGI: > 100 µM
786-0 renal
  TGI: > 100 µM
RXF 393 renal
  TGI: > 100 µM
OVCAR-5 ovarian
  TGI: > 100 µM
OVCAR-3 ovarian
  TGI: 94.7 µM
SF-295 CNS
  TGI: > 100 µM
SN12C renal
  TGI: > 100 µM
HCT-116 colon
  TGI: > 100 µM
NCI-H23 lung
  TGI: > 100 µM
NCI-H226 lung
  TGI: > 100 µM
SF-268 CNS
  TGI: > 100 µM
